According to US9422396B2, “Biodegradable elastomers prepared by the condensation of an organic di-, tri- or tetra-carboxylic acid and an organic diol” (QATAR UNIVERSITY, priority 2007, dated 2016):

Experiments:
[1] = Stability of pilocarpine nitrate in the release medium; assay type: physicochemical; conditions: over a period of one week
Procedure: Before running the release studies, the stability of PCN in the release medium was tested by monitoring the changes in the concentration of a prepared stock solution of PCN in each of them over a period of one week.

[2] = In vitro hydrolytic degradation of poly(diol-tricarballylate) elastomers in PBS (pH 7.4); assay type: physicochemical
Procedure: In order to examine the influence of chain length on the degradation rate and the changes in the mechanical properties of the elastomer during the in vitro degradation, four different elastomers, based on varying chain lengths of alkylene diol (C6-C12), were prepared and tested. FIGS. 21a and 21b show the weight loss and water absorption data for the four prepared elastomers.
Young's modulus (E) and the ultimate tensile stress (σ) decreased in a nearly linear fashion with time as indicative of zero-order degradation mechanism. This linear decrease was observed regardless of the network compositions, the crosslinking density and the initial E and σ of the elastomers. […] No significant change in the ultimate elongation was found up to 12 weeks of the in vitro degradation time. […] It is only with surface erosion degradation pattern that the elastomers can maintain their mechanical properties unchanged^41. […] The above observations illustrates that the changes in the mechanical properties of these networks took place in two stages. The first stage was characterized by a rapid mechanical weakening (rapid decrease in E and a) which lasted for up to 4 weeks. […] This is in correlation with the trend noted for the weight loss and water absorption reported above (FIG. 21).
Through a linear regression of the zero-order degradation kinetics of the data in FIGS. 23a and 23b using equations (1) & (2), the rate constants were calculated and are listed in Table 1. Et=E0−KEt. (1) σt=σ0−Kσt. (2) In equations 1 & 2, t denoted the immersion time (in weeks) in PBS. The values of E0 and σ0 corresponded to the intercepts obtained from extrapolating the zero-order fitted line. Kσ and KE represented the zero-order degradation constants for […].

Molecule	Change in concentration of stock solution in the release medium [1]	KE (zero-order degradation constant, Young's modulus) [2]	Kσ (zero-order degradation constant, ultimate tensile stress) [2]
CC[C@@H]1C(=O)OC[C@@H]1Cc1cncn1C [PN, Pilocarpine Nitrate]	no significant changes from its initial concentration		
poly(1,8 octane diol-co-tricarballylate) [POTC]		0.0301 MPa/week	0.0124 MPa/week
poly(1,10 decane diol-co-tricarballylate) [PDTC]		0.0237 MPa/week	0.0114 MPa/week
poly(1,12 dodecane diol-co-tricarballylate) [PDDTC]		0.0080 MPa/week	0.0018 MPa/week
